This note sets out measurements from patent publication US20230389546A1, “ANTIMICROBIAL COMPOSITION” (The Procter & Gamble Company, priority 2022, published 2023).

One test concerns Gram Negative bacteria. Kind of test: Surface Antimicrobial Kill Testing, normalized to triclosan internal standard, gram negative. The note with it: for antimicrobial benefit in words, gram-negative: Table 2B formulas. The test is classed as cell-based, K. pneumonia (Kp) / P. aeruginosa (Pa). The method, then:
(§1) Inoculum is prepared by streaking microorganism onto a Tryptic Soy Agar (TSA) plate and incubating for 24 h at 33° C. Plated bacteria is resuspended in saline until the transmittance percentage falls within the accepted range for ˜10^8 cfu/mL. For K. pneumonia (Kp) and P. aeruginosa (Pa), this is 31.00-33.00% T. For S. aureus (Sa) this is 23.00-25.00% T. A 10× concentration is made by spinning down the prepared inoculum, removing the supernatant saline from the bacterial pellet, then resuspending the pellet in 1/10th of the original volume of saline. The final inoculum is prepared with 5% of “soil” in the form of Fetal Bovine Serum (FBS). A 18×18 mm sterile glass coverslip is placed into an appropriate container (e.g., petri dish). 20 μL of prepared inoculum is added to the glass coverslip. Inoculum is then air-dried for 30 minutes in a 36° C. incubator. After drying, 40 μL of test sample is added on top of the dried inoculum. This is incubated at room temperature for the desired contact time. 5 mL of neutralizing media (Modified Letheen Broth+Tween+Lecithin (MLBTL)) is added to the coverslip and shaken on an orbital shaker for 5 minutes to ensure proper neutralization and extraction. Viability is then assessed of the neutralized and extracted sample by traditional/alternative microbiological techniques. The normalized antimicrobial activity reported in the performance examples below was generated from detection time data obtained as described in the Surface Antimicrobial Kill Test Method. To account for day-to-day variability an internal standard was tested with each series. The internal standard was a composition of 0.25 wt % Triclosan, Sigma Aldrich (St. Louis, MO, USA; CAS #3380-34-5, 97.0-103.0% (active substance, GC)), 50 wt % DMSO, and 49.75 wt % H2O, with a final solution pH of 7.7. Normalized activity is reported following the equation 1 below. Normalized Activity=(αΔDT−βΔDT)/(γΔDT−βΔDT) equation 1. where, αΔDT is the average detection time of the antimicrobial compound, and γΔDT is the average detection time of the reference triclosan internal standard, and βΔDT is the average detection time of the background unperturbed bacteria. Modified amino acids of the present disclosure were tested as aqueous solutions in the Surface Antimicrobial Kill Testing Method above. To prepare test solutions modified amino acids were first dissolved in the appropriate solvent. Second the selected surfactant is added to the mixture. After vortex (1 min, Vortex-2 Genie, vortex speed 8) mixing, the samples were then diluted with ½ portion of reverse osmosis water (RO water, Millipore Direct-Q™, pH 6). The aqueous solution was then vortexed (1 min, Vortex-2 Genie, vortex speed 8), to which the second ½ portion of water is added. The pH of the solution was then adjusted to the target pH using either 1N HCl, Glacial Acetic Acid, or 1N NaOH. The final solution was then vortexed (1 min, Vortex-2 Genie, vortex speed 8). An example batch sheet is provided below in Table 1. In Performance Examples 1-5 below, formulations comprising solvent, surfactant, and antimicrobial agents according to the present disclosure (e.g., based on modified amino acid amides), are evaluated via microbial surface kill tests according to the Surface Antimicrobial Kill Testing Method provided above. After treatment, microbial growth is referenced and reported to a triclosan sample and unaltered microbes according to the Normalization of Antimicrobial Activity provided above.

Another test has as its system Gram Positive bacteria. Description: Surface Antimicrobial Kill Testing, normalized to triclosan internal standard, gram positive. In kind it is cell-based, S. aureus (Sa). The settings on record: for antimicrobial benefit in words, gram-positive: Table 2B formulas. Here is the method:
as §1

[1] abbreviates: Table 3B, compound 0.5 wt %, DPGME 5 wt %, Surfonic L24-9 1 wt %, 0.1M Acetic acid buffer pH 4.5.
[2] abbreviates: Table 2B, compound 0.5 wt %, DPGME 5 wt %, Surfonic L24-9 1 wt %, 0.1M Acetic acid buffer pH 4.5.
[3] abbreviates: 0.5 wt %, 5 wt % DPGME, water, pH 4.5, EH6 1 wt %.
[4] abbreviates: 0.5 wt %, 5 wt % DPGME, water, pH 4.5, Miranol Ultra 1 wt %.
[5] abbreviates: 0.5 wt %, 5 wt % DPGME, water, pH 4.5, Plantaren 2000 1 wt %.
The mark [6] stands for this setting: 0.5 wt %, 5 wt % DPGME, water, pH 4.5, Surfonic L24-9 1 wt %.
The mark [7] stands for this setting: 0.5 wt %, 5 wt % DPGME, water, pH 4.5, Tween 80 1 wt %.
Setting [8] is: 0.5 wt %, 5 wt % DPGME, water, pH 9, Miranol Ultra 1 wt %.
The mark [9] stands for this setting: 0.5 wt %, 5 wt % DPGME, water, pH 9, SLS 1 wt %.
Where [10] appears, read: 0.5 wt %, 5 wt % DPGME, water, pH 9, Surfonic L24-9 1 wt %.
The mark [11] stands for this setting: Table 4, variety of surfactants.

Structures are written as SMILES.

Take `CCCCCCCCCNC(=O)[C@@H](N)Cc1c[nH]c2ccccc12` [Synthetic Example 3]: in the test on Gram Negative bacteria (setting [1]), the “Gram Negative Referenced Microbial Activity” value amounted to 2.2. The “Gram Positive Referenced Microbial Activity” value with Gram Positive bacteria (setting [1]) amounted to 0.3.

Take `CCCCCCCCNC(=O)[C@@H](N)Cc1ccccc1` [Synthetic Example 5]: the “antimicrobial benefit in words, gram-negative” value in the test with Gram Negative bacteria was “demonstrate meaningful gram-negative activity”. For the same compound, the “Gram Negative Referenced Microbial Activity” value with Gram Negative bacteria (setting [2]) is reported as at least 3.9. In addition, the “antimicrobial benefit in words, gram-positive” value in the test on Gram Positive bacteria is “shows improvement against gram-negative and gram-positive bacteria”. Moreover, the “Gram Positive Referenced Microbial Activity” value in the test on Gram Positive bacteria (setting [2]) is 0.7.

In the case of `CN(C)C(=O)[C@H](N)Cc1ccccc1` [Comparative Example C1, reference compound], the “antimicrobial benefit in words, gram-negative” value with Gram Negative bacteria was “fail to show any meaningful benefit”. Besides, in the test with Gram Negative bacteria (setting [2]), the “Gram Negative Referenced Microbial Activity” value is recorded as 0.2. Besides, the “antimicrobial benefit in words, gram-positive” value in the test with Gram Positive bacteria was “fail to show any meaningful benefit”. Also, in the test with Gram Positive bacteria (setting [2]), the “Gram Positive Referenced Microbial Activity” value was 0.1.

As for `CCCCCCCCNC(=O)[C@@H](N)Cc1c[nH]c2ccccc12` [Synthetic Example 2], the “Gram Negative Referenced Microbial Activity” value in the test with Gram Negative bacteria (setting [3]) is reported as at least 4.9; in the test on Gram Negative bacteria (setting [4]) it was at least 4.9; in the test with Gram Negative bacteria (setting [5]), at least 4.9; with Gram Negative bacteria (setting [6]), 2.5; with Gram Negative bacteria (setting [7]) it was at least 4.9; in the test on Gram Negative bacteria (setting [8]) it was 0.1. Besides, the “Gram Negative Referenced Microbial Activity” value with Gram Negative bacteria (setting [9]) is given as 0.0; in the test on Gram Negative bacteria (setting [10]) it was 0.7; in the test with Gram Negative bacteria (setting [1]) it was 2.5. For the same compound, in the test with Gram Negative bacteria (Table 4, gram negative and gram positive), the “pH cutoff of antimicrobial efficacy” value is “cutoff at pH 9”. The “antimicrobial efficacy in words, gram-negative” value with Gram Negative bacteria (setting [11]) is listed as “shows antimicrobial efficacy”. The “Gram Positive Referenced Microbial Activity” value with Gram Positive bacteria (setting [3]) was determined as 1.6; in the test with Gram Positive bacteria (setting [4]), 0.7; in the test on Gram Positive bacteria (setting [5]), 1.3; in the test on Gram Positive bacteria (setting [6]), 1.0; in the test on Gram Positive bacteria (setting [7]), 1.2; in the test with Gram Positive bacteria (setting [8]), 0.2. The “Gram Positive Referenced Microbial Activity” value in the test with Gram Positive bacteria (setting [9]) is on record as 0.2; in the test with Gram Positive bacteria (setting [10]) it was 0.2; in the test on Gram Positive bacteria (setting [1]) it was 1.0; with Gram Positive bacteria (compound 0.5 wt %, Surfonic L 24-9 1 wt %, 5 wt % DPGME, water, pH 4.5, aged 14 days) it was 1.1; in the test on Gram Positive bacteria (compound 0.5 wt %, Surfonic L 24-9 1 wt %, 5 wt % DPGME, water, pH 4.5, not aged), 1.0. In the test on Gram Positive bacteria (setting [11]), the “antimicrobial efficacy in words, gram-positive” value is “shows antimicrobial efficacy”.

Turning to `CCN(C(=O)C(N)Cc1ccccc1)C1CCCCC1` (stereo not drawn) [Synthetic Example 6], the “antimicrobial benefit in words, gram-negative” value in the test with Gram Negative bacteria was “demonstrate meaningful gram-negative activity”. Also, the “Gram Negative Referenced Microbial Activity” value in the test with Gram Negative bacteria (setting [2]) worked out at 2.7. Also, the “Gram Positive Referenced Microbial Activity” value with Gram Positive bacteria (setting [2]) is 0.2.

For `CCCCCCNC(=O)[C@@H](N)Cc1c[nH]c2ccccc12` [Synthetic Example 1], the “Gram Negative Referenced Microbial Activity” value in the test with Gram Negative bacteria (setting [1]) turned out to be 2.2. The “Gram Positive Referenced Microbial Activity” value in the test with Gram Positive bacteria (setting [1]) is given as 0.3.

In the case of `CCCCCCCCCCCCNC(=O)[C@@H](N)Cc1ccccc1` [Synthetic Example 7], in the test with Gram Negative bacteria, the “antimicrobial benefit in words, gram-negative” value was “fail to show any meaningful benefit”. Moreover, the “Gram Negative Referenced Microbial Activity” value in the test on Gram Negative bacteria (setting [2]) is on record as 0.1. Further, the “antimicrobial benefit in words, gram-positive” value in the test with Gram Positive bacteria is listed as “fail to show any meaningful benefit”. For the same compound, the “Gram Positive Referenced Microbial Activity” value with Gram Positive bacteria (setting [2]) is listed as 0.1.
